The values that follow come from patent US20250066358A1, “Inhibitors of Menin-MLL Interaction” (Bala Therapeutics, Inc., priority 2021, published 2025).

Structures are written as SMILES.

One series deals with MV4-11. Briefly: MV4-11 Cellular Growth Inhibition Assay (CellTiter-Glo). In kind it is cell-based. The note with it: Homo sapiens, 168 h, MV4-11 cells, 7 days of incubation. How it is done: (§1) HEK293 (Institute of Cytology Russian Academy of Science), MV4-11 (ATCC, CRL-9591), MOLM-13 (AcceGen, ABC-TC517S) were seeded at a density of 500 cells per well (HEK293) and 2000 cells per well (MV4-11, MOLM-13) in a 384-well clear bottom plate (Greiner Cat #781090) in 45 μl total volume of DMEM (PanEco, Cat #C420, Russia) or RPMI (PanEco, Cat #C330, Russia) with 10% FBS(HyClone Cat #SV30160.03). HEK293 were allowed to adhere overnight at 37° C., 5% CO2. 500× compounds solutions in DMSO (Sigma Cat #D2650) were prepared into Cmpnds plate (Diamond Well Plate, Axigen, Cat #P-384-120 SQ-C—S) and DMSO only control was included. 1 μl of 500× compounds (Cmpnds plate) was added to 49 μl of culture medium into Dilution plate (Diamond Well Plate, Axigen, Cat #P-384-120 SQ-C—S), mixed and then 5 μl of 10× compounds solutions were transferred to cells followed by centrifugation at 100 g for 1 min. Final DMSO concentration was 0.2%. After 3 days of incubation, 10 μl of 1× compounds were added to cells. After 7 days of incubation, 12 μl of CellTiter-Glo (Promega, CAT #G7572) were added to the cells, plate was centrifuged at 100 g for 1 min and luminescence signal was measured using Microplate Reader (CLARIOStar).

Series [1] can be described thus: HEK293 Cellular Growth Inhibition Assay (CellTiter-Glo). In kind it is cell-based. Particulars: human, HEK293 cells, 7 days of incubation. How it is done: as §1
The target of series [2] is T1, recombinant MEN1 protein and fluorescein-labeled MLL4-43 peptide (Homo sapiens, UniProt O00255).
T1 construct: purchased Creativebiomart MEN1-35H
T1 sequence (O00255 1-610): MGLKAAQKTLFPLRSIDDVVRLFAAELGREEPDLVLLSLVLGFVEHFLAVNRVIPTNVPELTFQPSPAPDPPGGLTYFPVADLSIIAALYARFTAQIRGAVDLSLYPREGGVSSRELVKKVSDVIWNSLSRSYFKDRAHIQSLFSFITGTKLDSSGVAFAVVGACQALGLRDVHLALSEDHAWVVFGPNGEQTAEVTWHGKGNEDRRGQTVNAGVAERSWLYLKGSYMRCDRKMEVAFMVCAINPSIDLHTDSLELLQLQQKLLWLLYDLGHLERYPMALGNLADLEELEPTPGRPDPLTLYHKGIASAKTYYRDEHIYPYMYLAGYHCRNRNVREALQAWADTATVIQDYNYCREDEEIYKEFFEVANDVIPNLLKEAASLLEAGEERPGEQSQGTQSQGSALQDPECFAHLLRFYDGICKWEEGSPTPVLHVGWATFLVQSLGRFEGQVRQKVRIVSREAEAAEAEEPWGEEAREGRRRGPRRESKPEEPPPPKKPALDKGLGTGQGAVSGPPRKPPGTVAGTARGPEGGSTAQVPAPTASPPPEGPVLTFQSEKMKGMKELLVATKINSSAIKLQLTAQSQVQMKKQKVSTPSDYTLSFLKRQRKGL
Briefly: Primary fluorescence polarization assay of MEN1 / MLL4-43 interaction inhibition. In kind it is binding. Particulars: MEN1 10 nM, MLL4-43 0.5 nM, 1 hour at room temperature. How it is done:
Compound activity was determined using recombinant MEN1 protein (Creativebiomart, Cat #MEN1-35H) and a custom fluorescein-labeled MLL4-43 peptide (Eton Bioscience Inc.). Interaction between MEN1 and MLL4-43 in the presence of compounds was determined by fluorescence polarization assay using a Microplate Reader ClarioStar Plus. The reaction was carried out in assay buffer (50 mM TRIS-HCl PH 7.4-7.6, 50 mM NaCl, 1 mM DTT, 0.1 mg/ml BSA). The compounds were dispensed on a 384 well Diamond Well Plate (Axigen, Cat #P-384-120 SQ-C—S) using the Biomek FX liquid handling system at 100× solutions of compounds in DMSO. 2× MEN1 mix (final concentration of MEN1 10 nM) was prepared in Assay buffer and 10 μl of mixture per well was added into 384w white Reaction plate with NBS(Corning, Cat #4513). 10 μl of Assay buffer w/o MENI was used for negative control. Plates were centrifuged for 1 min at 100 g. Next step the Compounds were added to Reaction plate using Biomek station via following steps: 3 μl of 100× compounds (in DMSO) were mixed thoroughly with 27 μl Assay Buffer, then 2 μl of this mixture was added to Reaction plate with 10 μl of MENI mix. Plates were centrifuged for 1 min at 100 g and incubated for 20 min at room temperature. Next 8 μL of MLL4-43 peptide per well was added to final concentration of MLL 0.5 nM. Plates were incubated for 1 hour at room temperature. Then fluorescence polarization was measured using Microplate Reader.

The test system of another series is MOLM-13. As to the kind of experiment: MOLM-13 Cellular Growth Inhibition Assay (CellTiter-Glo). The note with it: Homo sapiens, 168 h, MOLM-13 cells, 7 days of incubation. In kind it is cell-based. As to the method:
as §1

Consider `CCS(=O)(=O)N[C@H]1CC[C@H](CN2CCC3(CC2)CN(c2ncnc4ccc(CC(F)(F)F)cc24)C3)CC1` [Compound 5, N-((1R,4R)-4-((2-(6-(2,2,2-trifluoroethyl)quinazolin-4-yl)-2,7-diazaspiro[3.5]nonan-7-yl)methyl)cyclohexyl)ethanesulfonamide], for which the results for the CC50 in the series with MV4-11 and in the series with MOLM-13 were not above 1 µM and 1 to 5 µM, respectively. The same molecule registered a CC50 at 7 days in series [1] of 5 to 15 µM. In addition, the half-maximal effective concentration (EC50) in series [2] was not above 0.075 µM.

Turning to `CCS(=O)(=O)N[C@H]1CC[C@H](CN2CCC3(CC2)CN(c2ncnc4ccc(CCc5ccccc5)cc24)C3)CC1` [Compound 51, N-((1R,4R)-4-((2-(6-phenethylquinazolin-4-yl)-2,7-diazaspiro[3.5]nonan-7-yl)methyl)cyclohexyl)ethanesulfonamide], the CC50 in the series with MV4-11 fell in the range of 2.5 to 5 µM; in the series on MOLM-13, 5 to 10 µM. This molecule yielded a CC50 at 7 days in series [1] of 5 to 15 µM. Also, in series [2], the EC50 was 0.5 to 1 µM.

Take `CCS(=O)(=O)Nc1ccc(CN2CCC3(CC2)CN(c2ncnc4ccc(CCc5ccccc5)cc24)C3)cc1` [Compound 52, N-(4-((2-(6-phenethylquinazolin-4-yl)-2,7-diazaspiro[3.5]nonan-7-yl)methyl)phenyl)ethanesulfonamide]: the CC50 in the series on MV4-11 was 1 to 2.5 µM; in the series with MOLM-13 it was 1 to 5 µM. Further, the CC50 at 7 days in series [1] lay within 5 to 15 µM. Moreover, the EC50 in series [2] was 0.5 to 1 µM.

Consider `CCS(=O)(=O)Nc1ccc(CN2CCC3(CC2)CCN(c2ncnc4ccc(CC(F)(F)F)cc24)CC3)cc1` [Compound 1, N-[4-[[3-[6-(2,2,2-trifluoroethyl)quinazolin-4-y1]-3,9-diazaspiro[5.5]undecan-9-yl]methyl]phenyl]ethanesulfonamide], for which the CC50 with MV4-11 was 2.5 to 5 µM; in the series with MOLM-13 it was 5 to 10 µM. In series [1], the CC50 at 7 days fell in the range of 5 to 15 µM. Further, the concentration giving a half-maximal response (EC50) in series [2] lay in the range of 1 to 5 µM.

`CCS(=O)(=O)Nc1ccc(CN2CCC3(CC2)CN(c2ncnc4ccc(CC(F)(F)F)cc24)C3)cc1OCC(C)N1CCN(S(C)(=O)=O)CC1` (racemic) [Compound 70, rac-(R)-N-(2-(2-(4-(methylsulfonyl)piperazin-1-yl)propoxy)-4-((2-(6-(2,2,2-trifluoroethyl)quinazolin-4-yl)-2,7-diazaspiro[3.5]nonan-7-yl)methyl)phenyl)ethanesulfonamide]: the half-maximal cytotoxic concentration (CC50) in the series on MV4-11 lay in the range of 2.5 to 5 µM; with MOLM-13, 5 to 10 µM. The half-maximal cytotoxic concentration (CC50) at 7 days in series [1] was in the range of 15 to 30 µM. For the same molecule, the EC50 in series [2] is more than 5 µM.

Regarding `CCS(=O)(=O)NC12CC(CN3CCC4(CC3)CN(c3ncnc5ccc(CC(F)(F)F)cc35)C4)(C1)C2` [Compound 74, N-(3-((2-(6-(2,2,2-trifluoroethyl)quinazolin-4-yl)-2,7-diazaspiro[3.5]nonan-7-yl)methyl)bicyclo[1.1.1]pentan-1-yl)ethanesulfonamide], the CC50 is more than 10 µM with MV4-11 and 10 to 20 µM with MOLM-13. Also, in series [1], the cytotoxic concentration (CC50) at 7 days is 30 to 50 µM. Also, in series [2], the half-maximal effective concentration (EC50) lay within 1 to 5 µM.

With `CCS(=O)(=O)Nc1ccc(CN2CCC3(CC2)CN(c2ncnc4ccc(CCc5ccncc5)cc24)C3)cc1` [Compound 49, N-(4-((2-(6-(2-(pyridin-4-yl)ethyl)quinazolin-4-yl)-2,7-diazaspiro[3.5]nonan-7-yl)methyl)phenyl)ethanesulfonamide], the cytotoxic concentration (CC50) lay within 5 to 10 µM with MV4-11 and 10 to 20 µM with MOLM-13. This molecule also gave a half-maximal cytotoxic concentration (CC50) at 7 days in series [1] of 30 to 50 µM. In addition, the EC50 in series [2] fell in the range of 1 to 5 µM.

Regarding `CCNS(=O)(=O)c1ccc(CN2CC3(CCN(c4ncnc5ccc(CC(F)(F)F)cc45)CC3)C2)cc1` [Compound 45, N-ethyl-4-((7-(6-(2,2,2-trifluoroethyl)quinazolin-4-yl)-2,7-diazaspiro[3.5]nonan-2-yl)methyl)benzenesulfonamide], the CC50 in the series with MV4-11 and in the series with MOLM-13 was 5 to 10 µM throughout. The CC50 at 7 days in series [1] fell in the range of 15 to 30 µM. Besides, the EC50 in series [2] lay within 1 to 5 µM.

Regarding `CCS(=O)(=O)N[C@H]1CC[C@H](CN2CCC(Nc3ncnc4ccc(CC(F)(F)F)cc34)C2)CC1` (mixture of isomers) [Compound 71, N-((1R,4R)-4-(((RS)-3-((6-(2,2,2-trifluoroethyl)quinazolin-4-yl)amino)pyrrolidin-1-yl)methyl)cyclohexyl)ethanesulfonamide], the half-maximal cytotoxic concentration (CC50) was more than 10 µM in the series with MV4-11 and more than 20 µM with MOLM-13. Also, the CC50 at 7 days in series [1] was more than 50 µM. Also, the EC50 in series [2] was more than 5 µM.

Consider `O=C1COc2cc(CN3CCC4(CC3)CN(c3ncnc5ccc(CC(F)(F)F)cc35)C4)ccc2N1` [Compound 75, 7-((2-(6-(2,2,2-trifluoroethyl)quinazolin-4-yl)-2,7-diazaspiro[3.5]nonan-7-yl)methyl)-2H-benzo[b][1,4]oxazin-3(4H)-one], for which the CC50 in the series on MV4-11 fell in the range of 2.5 to 5 µM; in the series on MOLM-13, 1 to 5 µM. In addition, the half-maximal cytotoxic concentration (CC50) at 7 days in series [1] is 15 to 30 µM. The concentration giving a half-maximal response (EC50) in series [2] fell in the range of 0.075 to 0.5 µM.

Regarding `CCS(=O)(=O)N[C@H]1CC[C@H](CN2CCC3(CC2)CN(c2ncnc4ccc(CCc5cccnc5)cc24)C3)CC1` [Compound 56, N-((1R,4R)-4-((2-(6-(2-(pyridin-3-yl)ethyl)quinazolin-4-yl)-2,7-diazaspiro[3.5]nonan-7-yl)methyl)cyclohexyl)ethanesulfonamide], the CC50 in the series on MV4-11 and with MOLM-13 was 5 to 10 µM throughout. The CC50 at 7 days in series [1] was in the range of 15 to 30 µM. The EC50 in series [2] lay within 0.5 to 1 µM.
